Test systems include UACC-62; HL-60; HCC 2998; OVCAR-3; CAKI-1; ACHN; SF-539; PC-3; SK-OV-3; RXF 393; IGROV-1; MCF7; TK-10; HCT-15; KM12; OVCAR-4; SK-MEL-28; T47D; SK-MEL-5; NCI-H460.
Common to all, as to test: NCI tumour cell line growth inhibition, 48 h

SMILES strings stand for the structures.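 Protocol summary: plate cells (96-well), add compound at 5 concentrations, incubate 48 h, interpolate endpoints linearly. At the GI50, growth is halved.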 The source made the active and inactive calls. Rule as the data show it: active = GI50 up to about 1.1 µM and inactive = higher. Where a SMILES comes first, the peptide text is derived from it. [ ]: non-standard residue; d: D form. Hiv = CC(C)[C@H](O)C(=O)O A value given as a limit tells only on which side of the number the result lay.

As to `CC(C)[C@@H]1OC(=O)[C@@H](C)NC(=O)[C@@H]2CCCN2C1=O` (cyclo([Hiv]-Pro-[dA])), the GI50 with UACC-62, with HL-60, in the assay with HCC 2998, with OVCAR-3, in the assay with CAKI-1 and in the assay on ACHN was > 100 µM (inactive) throughout. Moreover, the GI50 in the assay with SF-539, in the assay with PC-3, in the assay with SK-OV-3, in the assay on RXF 393, in the assay with IGROV-1 and in the assay on MCF7 was > 100 µM (inactive) each time. Besides, the GI50 in the assay on TK-10 was > 100 µM (inactive); with HCT-15, > 100 µM; with KM12 it was > 100 µM (inactive); in the assay with OVCAR-4, > 100 µM (inactive); with SK-MEL-28, > 100 µM (inactive); with T47D it was > 100 µM (inactive). Further, the GI50 in the assay on SK-MEL-5 and with NCI-H460 was > 100 µM (inactive) in each case.

`CN(C)c1ncc(-c2c[nH]c3ccccc23)nc1-c1c[nH]c2ccccc12`: the GI50 in the assay on UACC-62 is 1.99 µM (inactive); in the assay with HL-60, 2.02 µM (inactive); in the assay with HCC 2998 it was 1.67 µM (inactive); with OVCAR-3, 5.75 µM (inactive); in the assay on CAKI-1 it was 3.47 µM (inactive); in the assay on ACHN it was 2.67 µM (inactive). Besides, the GI50 in the assay on SF-539 was 4.21 µM (inactive); in the assay on PC-3, 3.69 µM (inactive); in the assay with SK-OV-3 it was 7.66 µM (inactive); with RXF 393 it was 1.96 µM (inactive); in the assay with IGROV-1, 3.24 µM (inactive); with MCF7 it was 2.3 µM (inactive). The GI50 in the assay with TK-10 was 8.59 µM (inactive); in the assay on HCT-15, 3.14 µM; in the assay on KM12, 2.19 µM (inactive); in the assay with OVCAR-4 it was 5.32 µM (inactive); in the assay with SK-MEL-28, 2.89 µM (inactive); in the assay with T47D, 3.23 µM (inactive). The GI50 in the assay on SK-MEL-5 is 3.72 µM (inactive); with NCI-H460, 2.12 µM (inactive).

For `C[C@]12CCNC(=O)C=C1CC[C@@H]1C2CC[C@@]2(C)C1CC[C@@H]2OC(=O)COc1ccc(N(CCCl)CCCl)cc1` (stereo not given in full), the GI50 with UACC-62 was 1.28 µM (inactive); in the assay with HL-60, 1.32 µM (inactive); in the assay on HCC 2998 it was 3.84 µM (inactive); with OVCAR-3 it was 3.05 µM (inactive); in the assay on CAKI-1, 4.15 µM (inactive); with ACHN it was 0.982 µM (active). Moreover, the GI50 is 2.07 µM (inactive) in the assay with SF-539; > 10 µM (inactive) in the assay on PC-3; 6.27 µM (inactive) in the assay with SK-OV-3; 4.37 µM (inactive) in the assay with RXF 393; 13.1 µM (inactive) with IGROV-1; 1.29 µM (inactive) in the assay with MCF7. In addition, the GI50 is 17.6 µM (inactive) in the assay on TK-10; 2.68 µM in the assay with HCT-15; 8.28 µM (inactive) in the assay with KM12; 6.11 µM (inactive) with OVCAR-4; 17 µM (inactive) in the assay on SK-MEL-28; 1.88 µM (inactive) with T47D. Moreover, the GI50 with SK-MEL-5 was 7.33 µM (inactive); in the assay with NCI-H460 it was 0.308 µM (active).

Take `Nc1nc(Cl)cc(NCC2(CO)CC(CCCc3ccccc3)C2)n1` (stereo not given): the GI50 was > 100 µM (inactive) in the assay on UACC-62; > 35.1 µM (inactive) in the assay with HL-60; > 100 µM (inactive) in the assay with HCC 2998; > 100 µM (inactive) with OVCAR-3; > 100 µM (inactive) in the assay with CAKI-1; > 41.8 µM (inactive) in the assay with ACHN. In addition, the GI50 was > 100 µM (inactive) with SF-539; > 81.3 µM (inactive) in the assay on PC-3; 41.4 µM (inactive) in the assay on SK-OV-3; > 47.1 µM (inactive) in the assay with RXF 393; > 72.8 µM (inactive) with IGROV-1; 0.0492 µM (active) with MCF7. The GI50 was > 77.4 µM (inactive) in the assay with TK-10; > 100 µM in the assay on HCT-15; > 100 µM (inactive) in the assay on KM12; > 100 µM (inactive) with OVCAR-4; > 100 µM (inactive) in the assay with SK-MEL-28; 2.31 µM (inactive) in the assay on T47D. Besides, the results for the GI50 in the assay on SK-MEL-5 and in the assay with NCI-H460 were 0.31 µM (active) and > 69.5 µM (inactive), respectively.

As for `O=[N+]([O-])c1ccc(C2CC(c3ccccc3Cl)=Nc3ccccc3[S+]2[O-])cc1` (stereo not given), the GI50 in the assay on UACC-62 was 2.69 µM (inactive); with HL-60, 1.19 µM (inactive); in the assay on HCC 2998 it was 2.92 µM (inactive); in the assay on OVCAR-3, 3.48 µM (inactive); in the assay on CAKI-1 it was 2.48 µM (inactive); in the assay on ACHN, 2.01 µM (inactive). In addition, the GI50 is 7.19 µM (inactive) in the assay with SF-539; 4.67 µM (inactive) in the assay on PC-3; 19.8 µM (inactive) with SK-OV-3; 1.8 µM (inactive) in the assay with RXF 393; 2.77 µM (inactive) with IGROV-1; 2.34 µM (inactive) in the assay on MCF7. The GI50 in the assay on TK-10 was 8.02 µM (inactive); in the assay with HCT-15, 2.21 µM; in the assay with KM12, 3.82 µM (inactive); in the assay on OVCAR-4, 2.31 µM (inactive); in the assay with SK-MEL-28, 5.18 µM (inactive); in the assay with T47D, 12.8 µM (inactive). Further, the figures for the GI50 in the assay on SK-MEL-5 and with NCI-H460 were 5.41 µM (inactive) and 4.27 µM (inactive), respectively.

As for `O=C(OCCN1CCCCC1)C(c1ccccc1)C1(O)CCSCC1` (stereo not given), the GI50 with UACC-62, in the assay on HL-60, with HCC 2998, in the assay on OVCAR-3, in the assay with CAKI-1 and in the assay with ACHN was > 100 µM (inactive) throughout. Also, the GI50 with SF-539, in the assay on PC-3, with SK-OV-3, in the assay with RXF 393, with IGROV-1 and in the assay on MCF7 was > 100 µM (inactive) each time. Further, the GI50 with TK-10 is > 100 µM (inactive); in the assay with HCT-15, > 100 µM; in the assay with KM12 it was > 100 µM (inactive); in the assay on OVCAR-4, > 100 µM (inactive); in the assay with SK-MEL-28 it was > 100 µM (inactive); with T47D it was > 100 µM (inactive). For the same compound, the GI50 in the assay on SK-MEL-5 and with NCI-H460 was > 100 µM (inactive) each time.

As to `Cc1nc(N)sc1/N=N/c1ccccc1Br`, the GI50 in the assay on UACC-62 is 28.6 µM (inactive); in the assay with HL-60, > 42.5 µM (inactive); in the assay with HCC 2998 it was 8.87 µM (inactive); in the assay with OVCAR-3 it was 38.2 µM (inactive); in the assay with CAKI-1, 43.5 µM (inactive); in the assay with ACHN, 43.1 µM (inactive). Moreover, the GI50 is > 44.1 µM (inactive) with SF-539; 33.3 µM (inactive) in the assay on PC-3; > 57.7 µM (inactive) in the assay on SK-OV-3; 21.8 µM (inactive) in the assay on RXF 393; 24.1 µM (inactive) with IGROV-1; 35.4 µM (inactive) in the assay on MCF7. For the same compound, the GI50 was 37.9 µM (inactive) in the assay with TK-10; 33.7 µM in the assay on HCT-15; 33.5 µM (inactive) in the assay on KM12; > 35.3 µM (inactive) in the assay on OVCAR-4; 33.1 µM (inactive) in the assay with SK-MEL-28; 15.8 µM (inactive) in the assay with T47D. The GI50 in the assay on SK-MEL-5 was 31.3 µM (inactive); with NCI-H460, 22.9 µM (inactive).

`c1ccc2c(c1)Sc1nccc3ccnc-2c13`: the GI50 in the assay on UACC-62 was 23.3 µM (inactive); with HL-60, 27.8 µM (inactive); in the assay on HCC 2998, 33.3 µM (inactive); in the assay on OVCAR-3, > 100 µM (inactive); with CAKI-1, 7.13 µM (inactive); with ACHN, 13.8 µM (inactive). Further, the GI50 with SF-539 is 47.6 µM (inactive); with PC-3 it was 39.2 µM (inactive); in the assay on SK-OV-3, > 100 µM (inactive); in the assay on RXF 393 it was 63.8 µM (inactive); in the assay with IGROV-1 it was 27.7 µM (inactive); in the assay with MCF7 it was 12.6 µM (inactive). The GI50 in the assay with TK-10 is 12.4 µM (inactive); with HCT-15, > 10 µM; in the assay on KM12 it was 61 µM (inactive); with OVCAR-4, 59.2 µM (inactive); in the assay with SK-MEL-28, 36.9 µM (inactive); in the assay with T47D it was 27.7 µM (inactive). Besides, the GI50 in the assay with SK-MEL-5 was 19.1 µM (inactive); in the assay with NCI-H460, 5.57 µM (inactive).

With `Cn1c2ccccc2c(=O)c2c(O)cc3c(c21)CC(C1(C)CO1)O3` (stereo not given), the GI50 in the assay on UACC-62 is 2.16 µM (inactive); with HL-60 it was 0.0495 µM (active); in the assay on HCC 2998 it was 1.79 µM (inactive); in the assay on OVCAR-3, 3.61 µM (inactive); with CAKI-1 it was 2.99 µM (inactive); in the assay on ACHN it was 2 µM (inactive). In addition, the GI50 in the assay on SF-539 was 3.2 µM (inactive); with PC-3, 3.37 µM (inactive); in the assay on SK-OV-3, 5.53 µM (inactive); in the assay with RXF 393, 1.17 µM (inactive); in the assay with IGROV-1, 5.87 µM (inactive); in the assay on MCF7 it was 0.462 µM (active). Besides, the GI50 with TK-10 was 11.4 µM (inactive); with HCT-15, 4.69 µM; in the assay on KM12, 2.41 µM (inactive); with OVCAR-4, 8.83 µM (inactive); in the assay on SK-MEL-28, 2.79 µM (inactive); in the assay on T47D, 11.5 µM (inactive). Besides, the GI50 in the assay on SK-MEL-5 was 1.79 µM (inactive); in the assay with NCI-H460, 3.29 µM (inactive).

On to `ClCCc1ccccc1CC1=NCCc2ccccc21`, for which the GI50 in the assay on UACC-62 is 28.6 µM (inactive); with HL-60, 31.3 µM (inactive); in the assay on HCC 2998 it was 25.1 µM (inactive); in the assay with OVCAR-3 it was 28.8 µM (inactive); with CAKI-1, 33 µM (inactive); with ACHN, 30.8 µM (inactive). For the same compound, the GI50 is 38.8 µM (inactive) in the assay with SF-539; 30.5 µM (inactive) in the assay with PC-3; 44.7 µM (inactive) with SK-OV-3; 21.7 µM (inactive) in the assay on RXF 393; 32 µM (inactive) in the assay on IGROV-1; 27.7 µM (inactive) in the assay with MCF7. The GI50 is 41.7 µM (inactive) in the assay with TK-10; 33 µM in the assay with HCT-15; 29.3 µM (inactive) in the assay on KM12; 43.5 µM (inactive) with OVCAR-4; 47.6 µM (inactive) in the assay on SK-MEL-28; 21.9 µM (inactive) with T47D. For the same compound, the GI50 is 22.8 µM (inactive) in the assay with SK-MEL-5 and 25.8 µM (inactive) in the assay with NCI-H460.

The values are drawn from ChEMBL document CHEMBL1201862, “PubChem BioAssay data set” (2004).
